# Measurements from ChEMBL document CHEMBL1151553, “Two novel amino acid derivatives containing side-chain thioamides for the synthesis of photoactivatable peptides” (Bioorg Med Chem Lett, 1997).
# Numbered stars: 1 amine (or outer) side, 2 acyl side, 3 side chain; on linkers, the order of the positions; unused ones are H or OH. Square brackets hold non-standard residues; d marks the D form. Peptide text beside a SMILES is read from it. X2 = O=C([C@@H](Cc1ccc(NC(=S)Cc2ccccc2)cc1)N[*:1])[*:2]; X1 = O=C([C@@H](Cc1ccc(NC(=S)c2ccccc2)cc1)N[*:1])[*:2]; hCys = N[C@@H](CCS)C(=O)O
# Biological target: T1, Substance-K receptor (Homo sapiens, UniProt P21452)
# T1 sequence (P21452 whole entry): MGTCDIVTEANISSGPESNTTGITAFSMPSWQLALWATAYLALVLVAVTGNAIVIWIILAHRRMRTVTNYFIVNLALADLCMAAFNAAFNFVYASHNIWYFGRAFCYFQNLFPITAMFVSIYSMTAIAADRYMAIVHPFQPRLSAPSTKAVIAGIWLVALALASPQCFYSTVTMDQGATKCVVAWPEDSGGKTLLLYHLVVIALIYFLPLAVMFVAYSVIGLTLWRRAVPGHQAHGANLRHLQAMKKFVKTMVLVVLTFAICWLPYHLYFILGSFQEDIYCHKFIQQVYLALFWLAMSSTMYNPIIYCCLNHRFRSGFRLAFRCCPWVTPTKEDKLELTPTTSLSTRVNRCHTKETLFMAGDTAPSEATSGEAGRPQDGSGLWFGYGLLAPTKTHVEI
# Assay: Tested for the binding affinity to human NK2 receptor expressed in Sf-9 insect larval cells using 0.1 nM 2-[125 I] iodohistidyl neurokinin A
# Type: functional
row,SMILES,IC50 [nM]
1,CC(C)C[C@H](NC(=O)CNC(=O)[C@@H](NC(=O)[C@H](Cc1ccccc1)NC(=O)[C@H](CO)NC(=O)[C@H](CC(=O)O)NC(=O)[C@@H](NC(=O)[C@H](CCCCN)NC(=O)[C@@H](Cc1ccc(NC(=S)c2ccccc2)cc1)NC(=O)[C@@H](N)Cc1c[nH]cn1)[C@@H](C)O)C(C)C)C(=O)N[C@@H](CCS)C(N)=O (H-H[X1]KTDSFVGL[hCys]-NH2),7.72
2,CC(C)C[C@H](NC(=O)CNC(=O)[C@@H](NC(=O)[C@H](Cc1ccccc1)NC(=O)[C@H](CO)NC(=O)[C@H](CC(=O)O)NC(=O)[C@@H](NC(=O)[C@H](CCCCN)NC(=O)[C@@H](Cc1ccc(NC(=S)Cc2ccccc2)cc1)NC(=O)[C@@H](N)Cc1ccc(O)cc1)[C@@H](C)O)C(C)C)C(=O)N[C@@H](CCS)C(N)=O (H-Y[X2]KTDSFVGL[hCys]-NH2),53.4
